Results reported in article PMC10907374, “G2019S selective LRRK2 kinase inhibitor abrogates mitochondrial DNA damage” (NPJ Parkinson's Disease, 2024).

Columns and labels:
LRRK2 kinase = conditions: humans ref 15; cited from earlier work
wild-type HEK293 cells = test: Mitophagy (Mtphagy dye / Lyso dye live cell imaging) in wild-type HEK293 cells; type: cell-based, human; conditions: 20 μM FCCP, 3 h
Description: (§1) Thirty-five mm cell culture dishes (Cellvis, D35-20-1.5-N) were coated with poly-D-lysine (Sigma-Aldrich, P7280-5MG) for 5 min, washed with cell culture grade water (Sigma-Aldrich, W3500), and allowed to dry for at least 1 h before plating. LRRK2^G2019S/G2019S KI HEK293 and wild-type cells were passaged as described above and plated at 300,000 cells per well on poly-D-lysine-coated dishes. […] Following this, cells were washed three times with serum-free medium, and a working solution of Mtphagy dye (Dojindo, MD-01) was prepared in serum-free medium according to manufacturer protocols. Cultures were incubated with Mtphagy dye for 30 min, followed by three washes with serum-free medium. Complete medium was used to prepare a 20 µM FCCP (Abcam, ab120081) or DMSO control treatment solution, which was used to treat cells for 3 h. Following treatment, cells were then washed 3 times with serum-free medium, and a working solution of Lyso dye (Dojindo, MD-01) was prepared in serum-free medium and used to treat cells for 30 min. Complete medium lacking phenol red was prepared for use in confocal live cell imaging by combining phenol red-free DMEM/F-12 (Fisher Scientific, 21-041-025), FBS (VWR, 97068-085), and penicillin-streptomycin (VWR, 45000-652). Following Lyso dye treatment, cultures were washed three times with phenol red-free medium, followed by adding fresh phenol red-free medium to cell culture dishes. MitoBright LT Deep Red (Dojindo, MT12-12) was diluted in growth medium to prepare a 0.1 μmol/l solution and was used to treat cells for 15 min for total mitochondrial staining. Live cell imaging (5% CO2, 37 °C) was performed using a Zeiss LSM 880 Confocal Laser Scanning Microscope with Zen Black software. On average, ~70 cells were analyzed for each condition per each experimental replicate.
(§2) Following imaging, files were processed using Zen Blue software, and TIFF files of each channel were obtained for analysis. ImageJ was used to obtain readouts for image analysis. All images were converted to 8-bit format. For each respective image, the Lyso dye channel was used to create a mask delineating each lysosomal focus as a region of interest (ROI). Thresholding parameters were adjusted between biological replicates as required to ensure that the Lyso dye ROI encompassed all lysosome foci appropriately, and this was used to create a mask. This was then applied to the corresponding Mtphagy dye channel image, allowing collection of Mtphgy fluorescence intensity readouts for each lysosomal focus. Outliers were removed using Prism software (GraphPad) with the coefficient of removal set to 0.2%. Data was thresholded to exclude lysosomes not containing mitochondria by excluding fluorescence values with intensities equal to or below background levels. The number of ROIs remaining after thresholding was used to quantify lysosomes containing fluorescing mitochondria (mitolysosomes). Fluorescence intensity values for all mitolysosomes per condition per biological replicate were averaged to obtain a value of mitophagy fluorescence intensity per mitolysosome. For each replicate, all values of average mitolysosome fluorescence intensity were normalized to wild-type (vehicle treated) levels for the given replicate.

[1] = test system: LRRK2^G2019S/G2019S KI HEK293 cells; test: Mitophagy (Mtphagy dye / Lyso dye live cell imaging) in LRRK2 G2019S/G2019S KI HEK293 cells; type: cell-based, human; conditions: 20 μM FCCP, 3 h
Description: as §1, §2

SMILES | inhibition of LRRK2 kinase by blood-based markers (LRRK2 kinase) | mitophagy following FCCP treatment (wild-type HEK293 cells) | mitophagy following FCCP treatment [1]
CNc1nc(Nc2cn(C(C)(C)C#N)nc2C)ncc1C(F)(F)F [DNL201] | dose-dependent inhibition | – | –
N#CC(C#N)=NNc1ccc(OC(F)(F)F)cc1 [FCCP] | – | increased | defect
